Test results published in US20110288036A1, “Methods for Treating or Preventing Vascular Graft Failure” (priority 2010, published 2011).

Legend:
[1] = test system: vein graft (inferior vena cava) intimal hyperplasia; experiment: Mouse vein graft model; format: in vivo
Description: 12-week-old C57BL/6 wild type mice (Harlan) were used for all experiments, as previously described (Muto, A. et al., J. Exp. Med., 2011, 208(3): 561-575, incorporated herein by reference in its entirety). […] Prior to implantation, the vein was treated ex vivo with 100 μM of MMI-0100 ([…] (SEQ ID NO: 1)) peptide solution, or control PBS solution, for 20 minutes at room temperature.
To implant the vein graft, a midline incision was made in the abdomen of a recipient mouse and the infrarenal abdominal aorta was exposed. The abdominal aorta was temporarily occluded with atraumatic micro-clamps and a segment corresponding to the length of the vein graft was excised. The vein was sutured into the arterial circulation using 10-0 nylon in continuous fashion.
Vein grafts were followed postoperatively using the Vevo770® High-Resolution Imaging System (VisualSonics, Toronto, Canada), with weekly measurements of graft wall thickness. At 28 days after surgery, mice were sacrificed to allow explantation of the vein graft. Tissue was either frozen with RNA stabilization reagent (Qiagen) or explanted for paraffin embedding after circulatory flushing with ice-cold PBS followed by 4% paraformaldehyde perfusion-fixation. Vein graft wall thickness, lumen diameter, and outer wall diameter (elastic lamina) were measured in elastin-stained sections using computer morphometry (ImageJ).
Vein graft samples were fixed as described above and harvested for histology. Specimens were embedded in paraffin and cut in cross section (5 μm). Hematoxylin & Eosin, Masson trichrome, and van Gieson elastin staining were performed for all samples. Cells were cultured on gelatin-coated cover slips and fixed with methanol.
All sections were treated for antigen retrieval using 10 mmol/L citrate buffer (pH 6.0) prior to boiling or proteinase K (20 μg/ml) treatment, at room temperature, for 10-15 minutes. Immunohistochemical detection was performed using DAB as well as NovaRED® substrate (Vector). Sections were counterstained with Mayer's Hematoxylin.
The efficacy of MMI-0100 ([…]; SEQ ID NO: 1) in treating intimal hyperplasia in vivo was examined using a mouse model of vein bypass graft. […] The IVC was soaked in a 100 μM solution of MMI-0100 ([…]; SEQ ID NO: 1) at room temperature for 20 minutes prior to implantation into a host (C57BL/6J) mouse to bypass the infrarenal aorta. Five treated and six untreated veins were transplanted for a total of 11 transplanted animals. Vein graft wall thickness was determined using a […] ultrasound imaging system at each week.
In order to further confirm the inhibitory effects of MMI-0100 ([…]; SEQ ID NO: 1) on intimal hyperplasia development in an […] model, the effect of MMI-0100 ([…]; SEQ ID NO: 1) was investigated in a follow-up study using a mouse model of vein graft adaptation. To this end, vein grafts were treated with PBS or 100 μM of MMI-0100 ([…]; SEQ ID NO: 1) for 20 minutes prior to implantation; the thickness of the vein grafts then was examined weekly with ultrasound.

[2] = test system: immortalized human pleural mesothelial cells (ATCC CRL-9444); experiment: IL-6 ELISA in TNF-α-stimulated mesothelial cells; format: cell-based
Description: Expression of inflammatory cytokines was induced by applying 1 or 10 ng/ml of TNF-α to cultured mesothelial cells. Briefly, immortalized human pleural mesothelial cells (ATCC CRL-9444) were grown in Medium199 with Earle's BSS, 0.75 mM L-glutamine (Mediatech Inc., Manassas, Va.), 1.25 g/l sodium bicarbonate (Sigma), 3.3 nM epidermal growth factor (EGF) (MBL International, Woburn, Mass.), 40 nM hydrocortisone (Sigma), 870 nM insulin (MBL International), 20 mM HEPES (Sigma), trace elements mixture B (Mediatech Inc., Waltham, Mass.), 10% fetal bovine serum (FBS) (Hyclone), and 1% penicillin/streptomycin (Mediatech Inc., Waltham, Mass.). […] Human mesothelial cells were treated with two different concentrations (1 and 10 ng/mL) of TNF-α for 2, 6, 12, and 24 hours (data not shown). […] Without TNF-α stimulation, mesothelial cells made negligible amounts of IL-6. […] In subsequent experiments designed to determine whether the MMI-0100 peptide ([…]; SEQ ID NO: 1) could reduce TNF-α induced IL-6 expression, both 1 and 10 ng/mL of TNF-α were selected as stimuli. 10 ng/mL of TNF-α is regarded as more physiologically relevant for mesothelial cells.
Prior to cytokine and/or inhibitor treatment, cells were allowed to acclimate in serum-free media consisting of only Medium199 with Earle's BSS, 0.75 mM L-glutamine, 1.25 g/l sodium bicarbonate, 20 mM HEPES, trace elements mixture B (Mediatech Inc., Waltham, Mass.), and 1% penicillin/streptomycin (Mediatech Inc., Waltham, Mass.) for 24 hours. […] Average concentration of IL-6 (pg/ml per 10^5 cells) at each time was determined by cytokine-specific ELISA.

[3] = test system: human smooth muscle cell (SMC); experiment: Phase contrast morphology, smooth muscle cells; format: cell-based; details: 24 hours treatment, vs control cells
Description: In order to determine the effect of pharmacological doses of MMI-0100 ([…]; SEQ ID NO: 1) on human endothelial cell (EC) and smooth muscle cell (SMC) proliferation, human EC and SMC cultures were treated with three concentrations (0.25 mM, 0.5 mM, and 1 mM) of MMI-0100 ([…] (SEQ ID NO: 1)) following pre-treatment with TNF-α.

YARAAARQARAKALARQLGVAA [MMI-0100] was tested, and the “reduced wall thickness compared to control grafts (histological staining)” value ([1]; follow-up study, 100 μM 20 minutes ex vivo, 4 weeks) was 72%, the “F4/80-positive cells infiltrating into vein grafts” value ([1]; follow-up study, 100 μM 20 minutes ex vivo, 4 weeks, immunohistochemistry) was “fewer F4/80-positive cells” and the “vein graft wall thickness ratio” value ([1]; follow-up study, 100 μM 20 minutes ex vivo, 4 weeks, ultrasound, control 4.7-fold) was 2.6 fold. For the same sequence, the “vein graft wall thickness, weekly ultrasound” value ([1]; follow-up study, 100 μM 20 minutes ex vivo, weeks 1-4) was “diminished wall thickness at all postoperative time points”, the “vessel wall thickness relative to originally harvested IVC” value ([1]; graft soaked 100 μM 20 minutes, 4 weeks, ultrasound, control almost five times) was “about 2.5 times” and the IL-6 expression ([2]; TNF-α 1 ng/mL, MMI-0100 1000 or 3000 μM, 6, 12, 24 hours) was “reduced IL-6 expression to the levels at or below the untreated baseline”. For the same sequence, the IL-6 expression ([2]; TNF-α 10 ng/mL, 3000 μM, every time point) was “reduced IL-6 expression to the levels of the untreated baseline”, the IL-6 expression ([2]; TNF-α 10 ng/mL, 6, 12, 24 hours) was “still effective in reducing IL-6 expression triggered by TNF-α” and the “morphological changes of SMC” value [3] was “no obvious morphological changes”.
